PubChem BioAssay (NCI)
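Briefly, cells in 96-well plates were exposed to five compound concentrations for 48 h, and endpoints were estimated by linear interpolation. GI50 marks 50% less growth. TGI marks complete inhibition of growth.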

Assays:
Assay in all cases: DTP human tumour cell line panel, 48 h
[1] = system: HS 578T breast
[2] = system: OVCAR-5 ovarian
[3] = system: U251 CNS
[4] = system: NCI/ADR-RES ovarian
[5] = system: MDA-MB-231 breast
[6] = system: IGROV1 ovarian
[7] = system: SNB-19 CNS
[8] = system: DU-145 prostate
[9] = system: HOP-92 NSCLC
[10] = system: BT-549 breast
[11] = system: RXF 393 renal
[12] = system: SF-295 CNS
[13] = system: OVCAR-4 ovarian
[14] = system: SK-MEL-2 melanoma
[15] = system: T-47D breast
[16] = system: HL-60(TB) leukemia
[17] = system: NCI-H522 lung
[18] = system: HCC-2998 colon
[19] = system: SF-268 CNS
[20] = system: A549 NSCLC
[21] = system: SK-OV-3 ovarian
[22] = system: HOP-62 NSCLC
[23] = system: OVCAR-8 ovarian
[24] = system: ACHN renal
[25] = system: MOLT-4 leukemia
[26] = system: HT29 colon
[27] = system: COLO 205 colon
[28] = system: NCI-H460 lung
[29] = system: NCI-H23 lung
[30] = system: SR leukemia
[31] = system: SN12C renal
[32] = system: EKVX NSCLC
[33] = system: TK-10 renal
[34] = system: M14 melanoma
[35] = system: CCRF-CEM leukemia
[36] = system: UO-31 renal
[37] = system: NCI-H226 lung
[38] = system: LOX IMVI melanoma
[39] = system: CAKI-1 renal
[40] = system: RPMI-8226 leukemia
[41] = system: SF-539 CNS
[42] = system: HCT-116 colon
[43] = system: HCT-15 colon
[44] = system: MDA-MB-435
[45] = system: 786-0 renal
[46] = system: A498 renal
[47] = system: SW-620 colon
[48] = system: MALME-3M melanoma
[49] = system: KM12 colon
[50] = system: SK-MEL-5 melanoma
[51] = system: UACC-257 melanoma
[52] = system: OVCAR-3 ovarian
[53] = system: MCF7 breast
[54] = system: UACC-62 melanoma

COc1cc2c3c(n(CCCN(C)C)c(=O)c2cc1OC)-c1cc2c(cc1C3=O)OCO2
GI50 [1]: 2300 nM
TGI [1]: 5930 nM
GI50 [2]: 1200 nM
TGI [2]: 2440 nM
GI50 [3]: 127 nM
TGI [3]: 4000 nM
GI50 [4]: 67.8 nM
TGI [4]: 564 nM
GI50 [5]: 972 nM
TGI [5]: 2760 nM
GI50 [6]: 1040 nM
TGI [6]: 2380 nM
GI50 [7]: 554 nM
TGI [7]: 6120 nM
GI50 [8]: 144 nM
TGI [8]: 1690 nM
GI50 [9]: 1840 nM
TGI [9]: 10600 nM
GI50 [10]: 1400 nM
TGI [10]: 3440 nM
GI50 [11]: 2480 nM
TGI [11]: > 100000 nM
GI50 [12]: 38.7 nM
TGI [12]: 1650 nM
GI50 [13]: 467 nM
TGI [13]: 2880 nM
GI50 [14]: 3450 nM
TGI [14]: 13100 nM
GI50 [15]: 496 nM
TGI [15]: 3940 nM
GI50 [16]: 1010 nM
TGI [16]: 3330 nM
GI50 [17]: 805 nM
TGI [17]: 4740 nM
GI50 [18]: < 35.7 nM
GI50 [19]: 1110 nM
TGI [19]: 5590 nM
GI50 [20]: 515 nM
TGI [20]: 2290 nM
GI50 [21]: 1290 nM
TGI [21]: 4330 nM
GI50 [22]: 18.2 nM
TGI [22]: 421 nM
GI50 [23]: 432 nM
TGI [23]: 3040 nM
GI50 [24]: 146 nM
TGI [24]: 1140 nM
GI50 [25]: < 10 nM
TGI [25]: 3400 nM
GI50 [26]: 70.2 nM
TGI [26]: 1780 nM
GI50 [27]: 944 nM
TGI [27]: 11700 nM
GI50 [28]: 281 nM
TGI [28]: 3370 nM
GI50 [29]: 165 nM
TGI [29]: 1590 nM
GI50 [30]: < 10 nM
TGI [30]: 112 nM
GI50 [31]: 935 nM
TGI [31]: 2750 nM
GI50 [32]: 1460 nM
TGI [32]: 3390 nM
GI50 [33]: 1480 nM
TGI [33]: 3260 nM
GI50 [34]: 422 nM
TGI [34]: 1930 nM
GI50 [35]: < 10 nM
TGI [35]: 403 nM
GI50 [36]: 926 nM
TGI [36]: 2260 nM
GI50 [37]: 1400 nM
TGI [37]: 5880 nM
GI50 [38]: 66.2 nM
TGI [38]: 1580 nM
GI50 [39]: 368 nM
TGI [39]: 1770 nM
GI50 [40]: 182 nM
TGI [40]: 1190 nM
GI50 [41]: 162 nM
TGI [41]: 1310 nM
GI50 [42]: 220 nM
TGI [42]: 1870 nM
GI50 [43]: 331 nM
GI50 [44]: 650 nM
TGI [44]: 2130 nM
GI50 [45]: 79.9 nM
TGI [45]: 583 nM
GI50 [46]: 9920 nM
TGI [46]: 33400 nM
TGI [47]: 1900 nM
GI50 [48]: 163 nM
TGI [48]: 1980 nM
GI50 [49]: 678 nM
TGI [49]: 2680 nM
GI50 [50]: 436 nM
TGI [50]: 2090 nM
GI50 [51]: 1180 nM
TGI [51]: 2840 nM
GI50 [52]: 1330 nM
TGI [52]: 2910 nM

Cc1cc(C)c(S(=O)(=O)N2CCN(c3cc4c(cc3F)c(=O)c(C(=O)O)cn4C3CC3)CC2)c(C)c1
GI50 [1]: 2400 nM
TGI [1]: 7580 nM
GI50 [3]: 2890 nM
TGI [3]: > 100000 nM
GI50 [4]: 3290 nM
TGI [4]: > 100000 nM
GI50 [7]: 2560 nM
TGI [7]: > 100000 nM
GI50 [8]: 3400 nM
TGI [8]: > 100000 nM
GI50 [10]: 3340 nM
TGI [10]: > 100000 nM
GI50 [13]: 2370 nM
TGI [13]: > 100000 nM
GI50 [15]: 4810 nM
TGI [15]: > 100000 nM
GI50 [17]: 2800 nM
TGI [17]: > 100000 nM
GI50 [18]: 5370 nM
TGI [18]: > 100000 nM
GI50 [19]: 3960 nM
TGI [19]: > 100000 nM
GI50 [20]: 2230 nM
TGI [20]: > 100000 nM
GI50 [21]: 3020 nM
TGI [21]: > 100000 nM
GI50 [22]: 3650 nM
TGI [22]: > 100000 nM
GI50 [23]: 2870 nM
TGI [23]: > 100000 nM
GI50 [24]: 2460 nM
TGI [24]: > 100000 nM
GI50 [28]: 3040 nM
TGI [28]: > 100000 nM
GI50 [29]: 3410 nM
TGI [29]: > 100000 nM
GI50 [31]: 2610 nM
TGI [31]: > 100000 nM
GI50 [33]: 4570 nM
TGI [33]: > 100000 nM
GI50 [34]: 4690 nM
TGI [34]: > 100000 nM
GI50 [35]: 2800 nM
TGI [35]: > 100000 nM
GI50 [53]: 2590 nM
TGI [53]: > 100000 nM
GI50 [40]: 2340 nM
TGI [40]: 6830 nM
GI50 [41]: 3140 nM
TGI [41]: > 100000 nM
GI50 [42]: 2980 nM
TGI [42]: > 100000 nM
GI50 [43]: 2550 nM
TGI [43]: > 100000 nM
GI50 [54]: 2430 nM
TGI [54]: > 100000 nM
GI50 [45]: 4080 nM
TGI [45]: > 100000 nM
GI50 [46]: 2370 nM
TGI [46]: > 100000 nM
GI50 [47]: 3400 nM
TGI [47]: > 100000 nM
GI50 [49]: 3380 nM
TGI [49]: > 100000 nM
GI50 [50]: 3030 nM
TGI [50]: > 100000 nM
GI50 [51]: > 100000 nM
TGI [51]: > 100000 nM
